From patent US20020120098A1, “Enhanced stimulation of erythropoiesis” (priority 1996, published 2002)

Columns and labels:
[1] = system: BFU-E; assay: Colony formation assay (CFA), cord blood LDMNC: BFU-E colonies; type: cell-based, human; details: for fold increase in BFU-E at 5% O2: 5% O2, 2 U/ml Epo, relative to untreated controls at ambient O2; for fold increase in BFU-E at 5% O2 / fold increase in BFU-E number over untreated controls (no addition) at 0.2 U/ml Epo: 1.0 mg/ml HAo or HEMOLINK; for BFU-E progenitor number, fold increase: 2 U/ml Epo, ambient O2, vs vehicle control; for fold increase in BFU-E number over untreated controls (no addition) at 0.2 U/ml Epo: 250 μM FeCl3
Experimental: (§1) This technique, referred to as the colony formation assay (CFA), is the most widely used biological assay to identify and enumerate erythroid progenitors present in hematopoietic tissue such as blood and bone marrow. Cell populations containing erythroid progenitors are plated in semi-solid suspensions of methyl cellulose, agar, low melting agarose or related substances in nutrient culture medium containing 1-3 U/ml Epo and 10 ng/ml IL-3 to specifically stimulate erythroid progenitors. Plates are incubated at 37° C. for 14 days during which time the erythroid progenitors form characteristic hemoglobinized (red) colonies. Two distinct but related erythroid progenitors can be distinguished based on colony size and morphology: BFU-E, the most primitive recognizable erythroid progenitor forms large multilobular colonies whereas the more mature CFU-E forms smaller spherical colonies.
(§2) Adult hemoglobin was purified according to U.S Pat. Nos. 5,439,591 and 5,545,328 to obtain HAo and HEMOLINK™ was prepared from HAo according to U.S. Pat. No. 5,532,352. Human umbilical cord blood intended for discard was collected from the umbilical vein of placentas immediately postpartum into 10 ml vacutainer tubes containing 143 USP units/ml sodium heparin. Low density mononuclear cells were separated from red blood cells by centrifugation over a 1.077 g/ml density gradient Cells removed from the plasma/density gradient interface were incubated overnight in a tissue culture flask with 10 ml cell culture medium containing 10% fetal bovine serum, and non-adherent LDMNC were further purified with an additional density gradient step. The LDMNC were then plated into colony formation assays (CFA) on the second day of isolation. In the CFA, LDMNC were plated at a density of 1×10^5 cells/ml in Iscoves modified Dulbeccos cell culture medium containing 0.8% methyl-cellulose, 30% fetal bovine serum, 1% bovine serum albumin, 0.1 mM 2-mercaptoethanol and 2 mM L-glutamine. Unless indicated otherwise, under standard CFA conditions 2 U/ml Epo and 10 ng/ml IL-3 are added to the formulation to stimulate hematopoietic progenitor growth, specifically BFU-E, CFU-E and CFU-GM.
(§3) Each condition was tested in duplicate in from 2-18 independent experiments. Cultures were maintained in a humidified incubator at 37° C., 5% CO2 and ambient oxygen tensions. The number of hematopoietic progenitors was scored between days 13-15 by counting the number and types of colonies present.
(§4) Erythroid progenitor colony formation assays were conducted as described in Example 1 except that cultures were incubated at either ambient oxygen tensions (˜20% O2) or 5% O2. The reduced oxygen tension of 5% O2 approximates the physiological intravascular oxygen tension in mammals. The mean fold increase in cord blood BFU-E, CFU-E and CFU-GM progenitor number at 5% O2 produced by 1.0 mg/ml HAo (15.6 μM; n=11) or HEMOLINK™ (15.6 μM; n=6), 100 μM hemin (n=10), 250 μM FeCl3 (n=6) or no addition (n=17-18), is shown FIG. 2. Results are expressed relative to control cells treated only with respective vehicles and cultured at ambient oxygen tensions (˜20% O2; fold expansion=1.0; *p<0.05, **p<0.01).
(§5) Erythroid progenitor colony formation assays were conducted as described in Example 1 except that cultures were initiated in the presence of Epo concentrations ranging from 0-2 U/ml. The mean fold increase in cord blood BFU-E, CFU-E and CFU-GM progenitor number produced by 1.0 mg/ml HAo (15.6 μM; n=9) or HEMOLINK™ (15.6 μM; n=6), 100 μM hemin (n=8), 250 μM FeCl3 (n=6), or no addition (n=9-10) in the presence of reduced Epo concentrations (0.2 U/ml) is shown in FIG. 3. Cultures were maintained at ambient oxygen tensions (˜20% O2) for 14 days. Results are expressed relative to control cells at 2 U/ml Epo treated only with the respective vehicles (solid line at fold expansion=1.0; *p<0.05, **p<0 01). Erythroid progenitor colonies were undetectable in the absence of Epo. […]

[2] = system: erythroid progenitors; assay: Colony formation assay (CFA), cord blood LDMNC: erythroid progenitor colonies overall; type: cell-based, human; details: for growth of erythroid progenitor colonies in the absence of Epo: 0 U/ml Epo; for size and colour of erythroid colonies: 2 and 0.2 U/ml Epo, ambient or 5% O2, 1.0 mg/ml HAo or HEMOLINK, 100 μM hemin, day 14
Experimental: as §1, §2, §3, §4, §5

Question: Which “BFU-E number at 0.2 U/ml Epo compared with untreated controls at 2 U/ml Epo” value ([1]; 0.2 U/ml Epo, ambient O2, 100 μM hemin) does the source give for `C=CC1=C(C)C2=Cc3c(C=C)c(C)c4[n]3[Fe-2]35([Cl])[n]6c(c(C)c(CCC(=O)O)c6=CC6=[N+]3C(=C4)C(C)=C6CCC(=O)O)=CC1=[N+]25` [hemin] here?
Answer: generated the same number of BFU-E as the untreated controls at 2 U/ml Epo

Question: What about the “fold increase in BFU-E at 5% O2” value ([1]; 100 μM hemin) of the same molecule?
Answer: ~8 fold

Question: And the “BFU-E progenitor number, fold increase” value ([1]; dose 1.0 μM)?
Answer: 0.9 fold

Question: What about the “BFU-E progenitor number, fold increase” value ([1]; dose 10 μM) of the same molecule?
Answer: 1.5 fold

Question: What about the “BFU-E progenitor number, fold increase” value ([1]; dose 250 μM) of the same molecule?
Answer: 2.2 fold

Question: What about the “growth of erythroid progenitor colonies in the absence of Epo” value [2] of the same molecule?
Answer: could not support the growth of erythroid progenitor colonies in the absence of Epo

Question: What about the “size and colour of erythroid colonies” value [2] of the same molecule?
Answer: mostly smaller and less red in color

Question: Which results are given for `[Cl][Fe]([Cl])[Cl]` [FeCl3]?
Answer: BFU-E progenitor number, fold increase ([1]; dose 1.0 μM): 1.2 fold; BFU-E progenitor number, fold increase ([1]; dose 10 μM): 1.4 fold; BFU-E progenitor number, fold increase ([1]; dose 250 μM): *1.7 fold; number of erythroid colonies at 0.2 U/ml Epo and 5% O2 (in words) ([2]; 5% O2, 0.2 U/ml Epo, 250 μM FeCl3): did not significantly increase the number of erythroid colonies; fold expansion of erythroid progenitors at 5% O2 (in words) ([2]; 5% O2, 2 U/ml Epo, 250 μM FeCl3): did not increase the fold expansion of erythroid progenitors beyond that of the untreated controls at 5% O2

Question: For “HEMOLINK™: chemically crosslinked hemoglobin prepared by treating human hemoglobin with a polyaldehyde (O-raffinose)”, which “reduction of toxicity of ganciclovir to BFU-E” value ([1]; 1 mg/ml HEMOLINK plus 0-100 μM ganciclovir) is on record?
Answer: about 10 fold

Question: And the “fold increase in BFU-E number over untreated controls (no addition) at 0.2 U/ml Epo” value ([1]; 0.2 U/ml Epo, ambient O2)?
Answer: 3 fold

Question: And the “fold increase in BFU-E at 5% O2” value ([1]; 100 μM hemin)?
Answer: ~8 fold

Question: And the “growth of erythroid progenitor colonies in the absence of Epo” value [2]?
Answer: could not support the growth of erythroid progenitor colonies in the absence of Epo

Question: What about the “size and colour of erythroid colonies” value [2] of the same molecule?
Answer: larger and redder

Question: What does the source list for “HAo: adult human hemoglobin obtained from red blood cells and purified by displacement chromatography; uncross linked product”?
Answer: fold increase in BFU-E number over untreated controls (no addition) at 0.2 U/ml Epo ([1]; 0.2 U/ml Epo, ambient O2): 3 fold; fold increase in BFU-E at 5% O2 ([1]; 100 μM hemin): ~8 fold; BFU-E progenitor number, fold increase ([1]; dose 10 μg/ml): 1.1 fold; BFU-E progenitor number, fold increase ([1]; dose 100 μg/ml): 1.3 fold; BFU-E progenitor number, fold increase ([1]; dose 500 μg/ml): **1.7 fold; growth of erythroid progenitor colonies in the absence of Epo [2]: could not support the growth of erythroid progenitor colonies in the absence of Epo; concentration at which significant stimulation of erythroid progenitor colony formation is observed ([2]; 2 U/ml Epo, ambient O2): 7.8 µM; size and colour of erythroid colonies [2]: larger and redder
